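Compound exposure: 48 hours, 5 concentrations, 96-well plates. GI50 = concentration required for 50% inhibition of growth.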 The source made the active and inactive calls. Rule as the data show it: active = GI50 up to about 1.1 µM and inactive = higher.
Columns and labels:
Experiment in all cases: inhibition of tumour cell growth, NCI panel, 48 h
ACHN = tested on: ACHN
CAKI-1 = tested on: CAKI-1
COLO 205 = tested on: COLO 205
HCC 2998 = tested on: HCC 2998
KM12 = tested on: KM12
LOX IMVI = tested on: LOX IMVI
M14 = tested on: M14
MCF7 = tested on: MCF7
NCI-H226 = tested on: NCI-H226
NCI-H23 = tested on: NCI-H23
OVCAR-4 = tested on: OVCAR-4
OVCAR-8 = tested on: OVCAR-8
RXF 393 = tested on: RXF 393
SF-268 = tested on: SF-268
SR = tested on: SR
SW-620 = tested on: SW-620
TK-10 = tested on: TK-10
U-251 = tested on: U-251
UACC-257 = tested on: UACC-257
UO-31 = tested on: UO-31

For `COc1cc(C(=O)Nc2nnc(S(N)(=O)=O)s2)cc(OC)c1OC`, the GI50 (ACHN) was > 100 µM (inactive), the GI50 (CAKI-1) was > 100 µM (inactive) and the GI50 (COLO 205) was > 100 µM (inactive). For the same compound, the GI50 (HCC 2998) was > 100 µM (inactive), the GI50 (KM12) was > 100 µM (inactive) and the GI50 (LOX IMVI) was > 100 µM (inactive). The GI50 (M14) was > 100 µM (inactive), the GI50 (MCF7) was > 100 µM (inactive) and the GI50 (NCI-H226) was > 100 µM (inactive). The GI50 (NCI-H23) was > 100 µM (inactive), the GI50 (OVCAR-4) was > 100 µM (inactive) and the GI50 (OVCAR-8) was > 100 µM (inactive). For the same compound, the GI50 (RXF 393) was > 100 µM (inactive), the GI50 (SF-268) was > 100 µM (inactive) and the GI50 (SR) was > 100 µM (inactive). For the same compound, the GI50 (SW-620) was > 100 µM (inactive), the GI50 (TK-10) was > 100 µM (inactive) and the GI50 (U-251) was > 100 µM (inactive). The GI50 (UACC-257) was > 100 µM (inactive) and the GI50 (UO-31) was > 100 µM (inactive).
With `O=[N+]([O-])C(=C1Nc2ccccc2N1)C(Cl)=C(Cl)Cl` the GI50 (ACHN) was > 100 µM (inactive), the GI50 (CAKI-1) was > 100 µM (inactive) and the GI50 (COLO 205) was > 100 µM (inactive). For the same compound, the GI50 (HCC 2998) was > 100 µM (inactive), the GI50 (KM12) was > 100 µM (inactive) and the GI50 (LOX IMVI) was > 100 µM (inactive). The GI50 (M14) was 62.5 µM (inactive), the GI50 (MCF7) was 39.7 µM (inactive) and the GI50 (NCI-H226) was > 100 µM (inactive). For the same compound, the GI50 (NCI-H23) was 84.5 µM (inactive), the GI50 (OVCAR-4) was 27 µM (inactive) and the GI50 (OVCAR-8) was 74.5 µM (inactive). The GI50 (RXF 393) was 99.1 µM (inactive), the GI50 (SF-268) was 44.1 µM (inactive) and the GI50 (SR) was 51.3 µM (inactive). For the same compound, the GI50 (SW-620) was > 100 µM (inactive), the GI50 (TK-10) was > 100 µM (inactive) and the GI50 (U-251) was > 100 µM (inactive). For the same compound, the GI50 (UACC-257) was > 100 µM (inactive) and the GI50 (UO-31) was 65 µM (inactive).
With `COC(=O)c1cc(NC(=O)Cn2c3ccccc3c3ccccc32)cn1C` the GI50 (ACHN) was 33.7 µM (inactive), the GI50 (CAKI-1) was 84.5 µM (inactive) and the GI50 (COLO 205) was 45 µM (inactive). For the same compound, the GI50 (HCC 2998) was 78.9 µM (inactive), the GI50 (KM12) was 38.2 µM (inactive) and the GI50 (LOX IMVI) was 53.3 µM (inactive). For the same compound, the GI50 (M14) was > 100 µM (inactive), the GI50 (MCF7) was 59 µM (inactive) and the GI50 (NCI-H226) was 21.6 µM (inactive). For the same compound, the GI50 (NCI-H23) was 39.3 µM (inactive), the GI50 (OVCAR-4) was 17.3 µM (inactive) and the GI50 (OVCAR-8) was 30.1 µM (inactive). For the same compound, the GI50 (RXF 393) was 39.1 µM (inactive), the GI50 (SF-268) was 30.6 µM (inactive) and the GI50 (SR) was 49.5 µM (inactive). For the same compound, the GI50 (SW-620) was > 100 µM (inactive), the GI50 (TK-10) was 49.7 µM (inactive) and the GI50 (U-251) was 26.4 µM (inactive). The GI50 (UACC-257) was 53.8 µM (inactive) and the GI50 (UO-31) was 25 µM (inactive).
With `O=c1oc2ccccc2c(-c2ccc(O)cc2)c1Oc1ccccc1` the GI50 (ACHN) was 10.2 µM (inactive), the GI50 (CAKI-1) was 24.5 µM (inactive) and the GI50 (COLO 205) was 29.4 µM (inactive). For the same compound, the GI50 (HCC 2998) was 7.21 µM (inactive), the GI50 (KM12) was 23.6 µM (inactive) and the GI50 (LOX IMVI) was 9.93 µM (inactive). For the same compound, the GI50 (M14) was 9.16 µM (inactive), the GI50 (MCF7) was 11.2 µM (inactive) and the GI50 (NCI-H226) was > 47 µM (inactive). For the same compound, the GI50 (NCI-H23) was 6.32 µM (inactive), the GI50 (OVCAR-4) was 20.4 µM (inactive) and the GI50 (RXF 393) was 23 µM (inactive). For the same compound, the GI50 (SF-268) was 8.57 µM (inactive), the GI50 (SR) was 41.8 µM (inactive) and the GI50 (SW-620) was 37.8 µM (inactive). For the same compound, the GI50 (TK-10) was 8.05 µM (inactive), the GI50 (U-251) was 8.51 µM (inactive) and the GI50 (UACC-257) was 7.83 µM (inactive). For the same compound, the GI50 (UO-31) was 7.73 µM (inactive).
With `C=CCOC(=O)[C@@H]1C[C@@H](OC(C)(C)C)CN1C(=O)[C@@H]1[C@H]2OC(C)(C)O[C@H]2CN1C(=O)OCC1c2ccccc2-c2ccccc21` the GI50 (ACHN) was 15.9 µM (inactive), the GI50 (CAKI-1) was 4.88 µM (inactive) and the GI50 (COLO 205) was 18.1 µM (inactive). The GI50 (HCC 2998) was 17.1 µM (inactive), the GI50 (KM12) was 2.86 µM (inactive) and the GI50 (LOX IMVI) was 2.3 µM (inactive). The GI50 (M14) was 19.7 µM (inactive), the GI50 (MCF7) was 48.4 µM (inactive) and the GI50 (NCI-H226) was 21.5 µM (inactive). For the same compound, the GI50 (NCI-H23) was 17.6 µM (inactive), the GI50 (OVCAR-4) was 17.2 µM (inactive) and the GI50 (OVCAR-8) was 5.87 µM (inactive). The GI50 (RXF 393) was 10.2 µM (inactive), the GI50 (SF-268) was 20.8 µM (inactive) and the GI50 (SR) was 8.05 µM (inactive). The GI50 (SW-620) was 20.9 µM (inactive), the GI50 (TK-10) was 18.4 µM (inactive) and the GI50 (U-251) was 12.6 µM (inactive). The GI50 (UACC-257) was 17.5 µM (inactive) and the GI50 (UO-31) was 0.15 µM (active).
`CCOc1ccccc1/N=C\c1c2ccccc2cc2ccccc12` was tested, and the GI50 (ACHN) was 29 µM (inactive), the GI50 (CAKI-1) was 24.2 µM (inactive) and the GI50 (COLO 205) was 32.3 µM (inactive). For the same compound, the GI50 (HCC 2998) was 18.5 µM (inactive), the GI50 (KM12) was 15.1 µM (inactive) and the GI50 (LOX IMVI) was 19.1 µM (inactive). The GI50 (M14) was 20.3 µM (inactive), the GI50 (MCF7) was 29.4 µM (inactive) and the GI50 (NCI-H226) was 46.5 µM (inactive). For the same compound, the GI50 (NCI-H23) was 17.3 µM (inactive), the GI50 (OVCAR-4) was 24.3 µM (inactive) and the GI50 (OVCAR-8) was 23.8 µM (inactive). For the same compound, the GI50 (RXF 393) was 15.7 µM (inactive), the GI50 (SF-268) was 21.2 µM (inactive) and the GI50 (SR) was 15.2 µM (inactive). The GI50 (SW-620) was 24.5 µM (inactive), the GI50 (TK-10) was 25 µM (inactive) and the GI50 (U-251) was 20.4 µM (inactive). For the same compound, the GI50 (UACC-257) was 31.1 µM (inactive) and the GI50 (UO-31) was 18.6 µM (inactive).
For `CCOC(=O)C(=O)N/N=C1\C(=O)Nc2ccccc21`, the GI50 (ACHN) was > 100 µM (inactive), the GI50 (CAKI-1) was > 100 µM (inactive) and the GI50 (COLO 205) was > 100 µM (inactive). The GI50 (HCC 2998) was > 100 µM (inactive), the GI50 (KM12) was > 100 µM (inactive) and the GI50 (LOX IMVI) was > 100 µM (inactive). For the same compound, the GI50 (M14) was > 100 µM (inactive), the GI50 (MCF7) was > 100 µM (inactive) and the GI50 (NCI-H226) was > 100 µM (inactive). For the same compound, the GI50 (NCI-H23) was > 100 µM (inactive), the GI50 (OVCAR-4) was > 100 µM (inactive) and the GI50 (OVCAR-8) was > 100 µM (inactive). For the same compound, the GI50 (RXF 393) was > 100 µM (inactive), the GI50 (SF-268) was > 100 µM (inactive) and the GI50 (SR) was > 100 µM (inactive). The GI50 (SW-620) was > 100 µM (inactive), the GI50 (TK-10) was > 100 µM (inactive) and the GI50 (U-251) was > 100 µM (inactive). For the same compound, the GI50 (UACC-257) was > 100 µM (inactive) and the GI50 (UO-31) was > 100 µM (inactive).

— ChEMBL document CHEMBL1201862, “PubChem BioAssay data set” (2004)
